“Also recorded” adds a separate entry of the source.
Columns and labels:
[1] = test system: approximately 900 tumor cell lines; test: Broad Institute PRISM high throughput cell viability screen; type: cell-based
From the text: Compound 1 was submitted to the Broad Institute PRISM high throughput cell viability screen (www.theprismlab.org/).

[2] = test system: SKBR3 cells; test: Cell viability (CellTiterGlo) in SKBR3 cells; type: cell-based; conditions: Homo sapiens, SK-BR-3, read-out: Compound 1 CTGlo GMean IC50 (95% CI); SKBR3 (WT), 72 hours
Experimental: (§1) Cell viability was measured using CellTiterGlo (Promega #G9243). Indicated cell lines were seeded according to Supplementary Table S3 in 50 μL of media in 384 well plates, with 72 hours of treatment at 37° C. with 5% CO2.

[3] = test system: DETROIT562 cells; test: Cell viability (CellTiterGlo) in DETROIT562 cells; type: cell-based; conditions: Homo sapiens, Detroit 562, read-out: Compound 1 CTGlo GMean IC50 (95% CI); DETROIT562 (H1047R), 72 hours
Experimental: as §1

[4] = test system: PIK3CA H1047R, ER+ PDX tumor
Experimental: (§2) All animal handling and treatment procedures were performed according to the approved Institutional Animal Care and Use Committee guidelines following the Association for Assessment and Accreditation of Laboratory Animal Care guidance. Cell line xenografts were performed in BALB/c nude mice except for the T47D model that used NSG mice implanted with 17-beta estradiol tablets (0.5 mg, 90-day release). PK/PD studies with xenograft tumors were established using standard protocols. PDX models were performed by XenoSTART (San Antonio, TX).

[5] = test system: HCC1954 cells; test: Cell viability (CellTiterGlo) in HCC1954 cells; type: cell-based; conditions: Homo sapiens, read-out: Compound 1 CTGlo GMean IC50 (95% CI); HCC1954 (H1047R), 72 hours
Experimental: as §1

[6] = test system: PIK3CA-mutant, ER+/HER2+ PDX tumor; test: PDX model, combination with palbociclib; type: in vivo; conditions: palbociclib 50 mg/kg QD
[7] = test system: AurB kinase, phospho-H3 (Ser10); test: Cellular AurB inhibition, phospho-H3 (Ser10); type: cell-based; conditions: 1-hour post treatment; Compound 1 up to 10 μM
[8] = test system: CAL148 cells; test: Cell viability (CellTiterGlo) in CAL148 cells; type: cell-based; conditions: Homo sapiens, CAL-148, read-out: Compound 1 CTGlo GMean IC50 (95% CI); CAL148 (H1047R + D350N), 72 hours
Experimental: as §1

[9] = test system: primary human subcutaneous adipocytes (WT PI3Kα); test: Human adipocyte 3H-2-deoxyglucose uptake; type: cell-based
Experimental: Primary human subcutaneous adipocytes were treated with test compound or vehicle for 1 hour followed by addition of 10 nM insulin and ^3H-2-deoxyglucose (Zen Bio Durham, NC USA, assay #CA-25 Lot #SL0071). Cytochalasin B treatment controlled for non-specific glucose uptake. Corrected counts per minute was determined using a scintillation counter.

[10] = Juric et al. 2018; cited from earlier work
[11] = test system: Cal33 (H1047R PI3Kα) xenograft tumors; conditions: mouse, in vivo
Experimental: as §2

[12] = test system: pAKT (S473), HCC1954 cells (PI3Kα H1047R); test: pAKT (S473) HTRF in HCC1954 cells; type: cell-based; conditions: Homo sapiens, read-out: Alpelisib pAKT HTRF GMean GI50 (95% CI), 1 hour
Experimental: (§3) A 384-well phospho-AKT (S473) HTRF (PerkinElmer #64AKSPEH) assay was used for target engagement. Each well was seeded with cell numbers indicated in Supplementary Table S3 in a volume of 12.5 uL in phenol red-free media and then treated for 1 hour at 37° C., before reading on a PHERAstar plate reader.

[13] = test system: pAKT (S473), DETROIT562 cells (PI3Kα H1047R); test: pAKT (S473) HTRF in DETROIT562 cells; type: cell-based; conditions: Homo sapiens, Detroit 562, read-out: Alpelisib pAKT HTRF GMean GI50 (95% CI), 1 hour
Experimental: as §3

| SMILES | growth sensitivity of PI3Kα helical-domain mutant tumor cells ([1]; compared with kinase-domain mutants) | sensitivity of PI3Kα kinase-domain mutant cell lines versus WT cell lines ([1]; grouped by PIK3CA status) | IC50 [2] | IC50 [3] | tumor growth / tumor volume ([4]; Compound 1 100 mg/kg PO QD, fulvestrant QW, 100 mg/kg) | T/C ([4]; Compound 1 100 mg/kg QD, fulvestrant 5 mg/kg QW) | IC50 [5] | tumor growth / tumor volume ([6]; Compound 1 100 mg/kg PO QD) | T/C ([6]; Compound 1 100 mg/kg QD) | inhibition of AurB / phospho-H3 (Ser10) in cells [7] | IC50 [8] | Emax ([9]; Adipocyte, 10 nM insulin, primary human adipocytes, read-out: maximum effect (Emax) for glucose uptake) | inhibition of glucose uptake ([9]; at 10 μM) | exposure of the maximum approved human dose [10] | serum insulin [11] | Δ Insulin, one-hour post dose [11] | GI50 [12] | GI50 [13] |
| --- | --- | --- | --- | --- | --- | --- | --- | --- | --- | --- | --- | --- | --- | --- | --- | --- | --- | --- |
| Cc1c([C@@H](NC(=O)Nc2cnc(N)nc2)C(F)(F)F)oc2c(F)cc(F)cc12 (single isomer, unassigned) [Compound 1] | nearly the same level of growth sensitivity | significantly more sensitive | 1560 nM | 246 nM | decreases tumor volume; also recorded: Strong tumor growth inhibition and stasis | 5% | 457 nM | decreases tumor volume; also recorded: Strong tumor growth inhibition and stasis | 9% | no significant inhibition of AurB; also recorded: limited AurB inhibition in cells | 705 nM | – | – | – | – | – | – | – |
| Cc1nc(NC(=O)N2CCC[C@H]2C(N)=O)sc1-c1ccnc(C(C)(C)C(F)(F)F)c1 [Alpelisib, alpelisib, reference compound] | – | – | – | – | – | – | – | – | – | – | – | 88% | nearly complete inhibition | ~33,000 ng*hr/mL | raised serum insulin | +1.07^NS ng/mL | 256 nM | 125 nM |
